# Test results taken from article PMC7767178 (International Journal of Molecular Sciences, 2020).
# Structures can show the parent of a compound that is named as a salt. Where two headings read alike, the source gives them in different places.
# Tests used:
# A. veronii ACCC61732 [1] = test: microbe, parasite or virus in culture; format: cell-based; conditions: for MIC: Aeromonas veronii; for MICa, MIC of the antibiotic used alone: checkerboard
# Description: The checkerboard microtiter assay was used to determine the combinations of peptides with different antibiotics (including quinolone, rifamycin, peptide antibiotics, aminoglycoside, tetracycline, and chloramphenicol). […] The fractional inhibitory concentration (FIC) was used to calculate the combination effects using the following formula: FIC index (FICI) = MIC(peptide in combination)/MIC(peptide alone) + MIC(antibiotic in combination)/MIC(antibiotic alone). FICI ≤ 0.5 means synergistic, 0.5 < FICI ≤ 1 means additive action, 1 < FICI ≤ 4 means indifference, and FICI > 4 means antagonism.
# A. veronii ACCC61732 [2] = test: Resistance development, 30 serial passages; format: cell-based; conditions: A. veronii ACCC61732, 30 passages (30 days)
# Description: The development of bacterial resistance of peptides was performed by the MIC assays. […] GEN, CIP, and PMB were used as controls. […] The MIC values were measured as described above. The serial passaging was repeated for 30 days.
# Gram-negative bacteria = conditions: data not shown; ref our previous study; cited from earlier work
# Description: A. veronii is a widely distributed novel pathogen that can infect humans and animals. Due to overuse of broad-spectrum antibiotics in fish hatcheries, agriculture, and clinical settings, there has been an increase in antibiotic resistance of Aeromonas species, illustrating an emerging potential health concern.
# A. veronii ACCC61732 [3] = test: Outer membrane permeabilization, NPN assay; format: cell-based; conditions: NPN fluorescence, 1×–4× MIC
# Description: The outer membrane permeabilization abilities of peptides were determined using the fluorescent NPN assay. Mid-log phase A. veronii ACCC61732 was collected by centrifugation, washed twice, and then suspended in N-2-hydroxyethylpiperazine-n-2-ethane sulfonic acid (HEPES) buffer (pH 7.4) to an OD600nm = 0.4. […] Fluorescence intensity was recorded until no further increase with a microplate reader (excitation/emission, 328/438 nm).
# [4] = ACCC61732, checkerboard, Tables S1–S5, identical values of one substance within a block given once, read-out: MICa, MIC of the antibiotic used alone
# [5] = Tables S1–S5, identical values of one substance within a block given once
molecule,measurement,setting,value
"O=C(N[C@H](CO)[C@H](O)c1ccc([N+](=O)[O-])cc1)C(Cl)Cl [CHLO, chloramphenicol]",MIC,A. veronii ACCC61732 [1]; [4],0.25 mg/L
"CCN1CCN(c2cc3c(cc2F)c(=O)c(C(=O)O)cn3C2CC2)CC1 [ENRO, enrofloxacin]",MIC,A. veronii ACCC61732 [1]; [4],0.25 mg/L
"CNC(C)C1CCC(N)C(OC2C(N)CC(N)C(OC3OCC(C)(O)C(NC)C3O)C2O)O1 (stereo not shown) [GEN, gentamicin, reference compound]",increase of MIC after 30 serial passages,A. veronii ACCC61732 [2],31 fold
"NC[C@H]1O[C@H](O[C@H]2[C@H](O)[C@@H](O[C@H]3O[C@H](CO)[C@@H](O)[C@H](N)[C@H]3O)[C@H](N)C[C@@H]2N)[C@H](O)[C@@H](O)[C@@H]1O [KANA, kanamycin sulfate]",MIC,A. veronii ACCC61732 [1]; [4],8 mg/L
"CCn1cc(C(=O)O)c(=O)c2cc(F)c(N3CCNCC3)cc21 [NOR, norfloxacin]",MIC,A. veronii ACCC61732 [1]; [4],0.5 mg/L
"CC1COc2c(N3CCN(C)CC3)c(F)cc3c(=O)c(C(=O)O)cn1c23 (stereo not shown) [OFX, ofloxacin]",MIC,A. veronii ACCC61732 [1]; [4],0.25 mg/L
"[H]/N=C(/N)N[C@H]1[C@H](O)[C@@H](O)[C@H](O[C@@H]2O[C@@H](C)[C@](O)(C=O)[C@H]2O[C@@H]2O[C@@H](CO)[C@H](O)[C@@H](O)[C@@H]2NC)[C@@H](N/C(N)=N\[H])[C@@H]1O [STRE, streptomycin sulfate]",MIC,A. veronii ACCC61732 [1]; [4],64 mg/L
"CN[C@H](CC(C)C)C(=O)N[C@H]1C(=O)N[C@@H](CC(N)=O)C(=O)N[C@H]2C(=O)N[C@H]3C(=O)N[C@H](C(=O)N[C@H](C(=O)O)c4cc(O)cc(O)c4-c4cc3ccc4O)[C@H](O)c3ccc(c(Cl)c3)Oc3cc2cc(c3O[C@@H]2O[C@H](CO)[C@@H](O)[C@H](O)[C@H]2O[C@H]2C[C@](C)(N)[C@H](O)[C@H](C)O2)Oc2ccc(cc2Cl)[C@H]1O [VAN, vancomycin]",MIC,"A. veronii ACCC61732 [1]; ACCC61732, read-out: MICa, MIC of the antibiotic used alone",16 mg/L
"AACCGFWNVVYRNGVRVHRRN [SN1, analog of N6 without the β-sheet structural feature]",antimicrobial activity against Gram-negative bacteria,Gram-negative bacteria,lost the antimicrobial activity
"GFWNVVYRNGVAACCRVHRRN [SN3, analog of N6 without the β-sheet structural feature]",antimicrobial activity against Gram-negative bacteria,Gram-negative bacteria,lost the antimicrobial activity
"VCVYRCHRRANGFAWNNGVRV [N2413, analog of N6 without the β-sheet structural feature]",antimicrobial activity against Gram-negative bacteria,Gram-negative bacteria,lost the antimicrobial activity
"VCVYRGFAWNCHRRANNGVRV [N2143, analog of N6 without the β-sheet structural feature]",antimicrobial activity against Gram-negative bacteria,Gram-negative bacteria,lost the antimicrobial activity
doxycycline hyclate,"MICa, MIC of the antibiotic used alone",A. veronii ACCC61732 [1]; [5],1 mg/L
"polymyxin B [PMB, reference compound]",increase of MIC after 30 serial passages,A. veronii ACCC61732 [2],one-fold
same,ability to penetrate the outer membrane,A. veronii ACCC61732 [3],higher ability to penetrate the outer membrane than N6NH2
same,"MICa, MIC of the antibiotic used alone",A. veronii ACCC61732 [1]; [5],8 mg/L
